US20020077291A1, “Method of treatment of tumors using transforming growth factor-alpha” (priority 2000, published 2002)

How the values were obtained:
[1] = background statement; cited from earlier work
[2] = Toxicity (body weight, death) in tumor-bearing nude mice of the A431 model; assay type: in vivo
From the text: (§1) Using a nude mouse model and human epidermal cancer cell tumor (A-431), having 10^7 or greater EGF receptors, the inventors investigated whether TGF-alpha would promote tumor growth. […] In a further parallel experiment, the inventors investigated whether TGF-alpha would directly influence the survival of the tumor. […] Five mice in three of the four groups were sacrificed at this time. […] Phase 3 began on day 20.
(§2) PHASE 1 :On day 1 all animals were orthotopically implanted with tumor in their breast fat flaps (2-3 tumor tissue specimens per animal). On day 3 in the morning the tumor was measured in all animals. Then animals from group B and D received the first injection of TGF-alpha, animals from group A and C received placebo.
(§3) TGF-alpha was injected at a concentration of 1 microgram per mouse (assuming mouse weighs 20 gram) or 50 microgram per kg.
(§4) Phase 2. […] On day 10, day 11, day 12 and day 13 animals from group B and D received additional TGF-alpha injections spaced 24 hours from the 9th day administration; animals from group A and C receive placebo at the same time.
Phase 3. On day 20 in the morning the tumor load was measured in all remaining animals according to anticancer procedure. Each group of 10 (groups A, B, C, D) mice were divided into two subgroups: for phase 3A, 5 animals in each group were maintained with no further treatments). For phase 3B, 5 animals from original groups B and D received another injection of TGF-alpha and animals from original group A and C received placebo. […] On day 21, 22, 23 and 24 the five animals from original groups B and D received additional TGF-alpha injections spaced 24 hours from the 20th day of administration; the five selected animals from original group a and c received placebo at the same time. The experiment was terminated on day 26.
body weight—daily for all animals

[3] = tested on: human epidermal cancer cell tumor (A-431); experiment: Effect of TGF-α and cisplatin on tumor growth in the A431 human epidermal cancer MetaMouse model; assay type: in vivo, nude mice; details: FIGS. 1 and 3; for tumor growth (mean tumor volume): A431 tumor orthotopically implanted in nude mice, cisplatinum 10 mg/kg days 3, 9 (20), TGF-alpha 50 ug/kg days 3-7, 9-13 (20-24), 26 days; for tumor growth inhibition compared with cisplatinum treatment: TGF-alpha alone 50 ug/kg vs cisplatinum 10 mg/kg, A431 model
Protocol: as §1, with “growth. In a parallel experiment, the tumor was treated with a chemotherapeutic agent, cisplatinum.” for “growth.”
The study consisted of four groups of nude mice:
1. Group A—control (15 animals); this group was implanted with tumor and treated only with placebo (according to TGF-injection schedule).
2. Group B—TGF-controls (10 animals); this group was implanted with tumor and received only TGF-injection (according to TGF-injection schedule).
as §2, with “placebo. Six hours later animals from group C and D received cisplatin injection.” for “placebo.”
as §3
On day 4, day 5, day 6 and day 7 animals from group B and D received additional TGF-alpha injections spaced 24 hours from the first administration; at the same time, animals from group A and C received placebo.
On day 6 the tumor load in all animals was measured again.
On day 8, five animals were randomly selected from group A, C and D for sacrifice. Their tumor load was measured again, their blood drawn and their intestines, kidneys and spleen removed and preserved. The spleen weight was determined at the time of collection.
as §4
On day 12 the tumor load in all animals was measured again. On day 15 […]. their tumor load was measured again, their blood drawn and their intestines, kidneys and spleen removed and preserved. The spleen weight was determined at the time of collection.
Phase 3. On day 20 in the morning the tumor load was measured in all remaining animals according to anticancer procedure. Each group of 10 (groups A, B, C, D) mice were divided into two subgroups: for phase 3A, 5 animals in each group were maintained with no further treatments). […]

[4] = tested on: EGF receptor family (e.g., ErbB1 through 4); details: background statement; cited from earlier work

Row | Compound | acid and heat stability [1] | protection against death caused by the third treatment of cisplatinum ([2]; TGF-alpha 50 ug/kg days 20-24 with cisplatinum 10 mg/kg day 20, FIG. 4) | protection against toxicity of cisplatinum ([2]; TGF-alpha 50 ug/kg given with cisplatinum 10 mg/kg, FIGS. 2 and 4) | body weight ([2]; mean body weight, daily, 26 days, FIGS. 2 and 4, cisplatin effect at the third treatment (day 20)) | tumor growth (mean tumor volume) [3] | tumor growth inhibition compared with cisplatinum treatment [3] | tumor growth inhibition compared with cisplatinum treatment ([3]; listed as TGF-α) | binding affinity [4]
1 | transforming growth factor alpha [TGF-alpha] | acid and heat stable | protected against the death | protected against toxicity of cisplatinum | no effect on body weight | inhibited tumor growth | to the same degree as cisplatinum treatment | as effective as cisplatin | high affinity in the nanomolar range
2 | N.N.[Cl][Pt][Cl] [cisplatinum, cisplatin, reference compound] | – | – | – | – | more effective than the control | – | – | –
